Tested on: 873145-292-R-J1-PDC complex spheroid viability
Test: Anticancer human tumor 873145-292-R-J1-PDC patient-derived renal clear cell carcinoma cell line growth inhibition [POLQ]
Settings: for IC50: curve of first compound; for viability, T/C: stronger effect = lower value
Procedure, shortened: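 Patient-derived tumour cells were co-cultured with HUVEC and mesenchymal stem cells as multicellular spheroids at 37 °C. They were treated with POLQ inhibitors (novobiocin, ART-558, RP6685) alone or combined with other agents. Top concentrations were at or near clinical Cmax (otherwise 10 microM; SN-38 at 1 microM), decreasing in half-log steps.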

[1] = second compound 0.0316 µM, first compound 0.0316 µM
[2] = second compound 0.0316 µM, first compound 0.1 µM
[3] = second compound 0.0316 µM, first compound 0.316 µM
[4] = second compound 0.0316 µM, first compound 1 µM
[5] = second compound 0.0316 µM, first compound 3.16 µM
[6] = second compound 0.0316 µM, first compound 10 µM
[7] = second compound 0.1 µM, first compound 0.0316 µM
[8] = second compound 0.1 µM, first compound 0.1 µM
[9] = second compound 0.1 µM, first compound 0.316 µM
[10] = second compound 0.1 µM, first compound 1 µM
[11] = second compound 0.1 µM, first compound 3.16 µM
[12] = second compound 0.1 µM, first compound 10 µM
[13] = second compound 0.316 µM, first compound 0.0316 µM
[14] = second compound 0.316 µM, first compound 0.1 µM
[15] = second compound 0.316 µM, first compound 0.316 µM
[16] = second compound 0.316 µM, first compound 1 µM
[17] = second compound 0.316 µM, first compound 3.16 µM
[18] = second compound 0.316 µM, first compound 10 µM
[19] = second compound 1 µM, first compound 0.0316 µM
[20] = second compound 1 µM, first compound 0.1 µM
[21] = second compound 1 µM, first compound 0.316 µM
[22] = second compound 1 µM, first compound 1 µM
[23] = second compound 1 µM, first compound 3.16 µM
[24] = second compound 1 µM, first compound 10 µM
[25] = second compound 3.16 µM, first compound 0.0316 µM
[26] = second compound 3.16 µM, first compound 0.1 µM
[27] = second compound 3.16 µM, first compound 0.316 µM
[28] = second compound 3.16 µM, first compound 1 µM
[29] = second compound 3.16 µM, first compound 3.16 µM
[30] = second compound 3.16 µM, first compound 10 µM
[31] = second compound 10 µM, first compound 0.0316 µM
[32] = second compound 10 µM, first compound 0.1 µM
[33] = second compound 10 µM, first compound 0.316 µM
[34] = second compound 10 µM, first compound 1 µM
[35] = second compound 10 µM, first compound 3.16 µM
[36] = second compound 10 µM, first compound 10 µM
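Also: spheroids exposed to compounds for 7 days before viability readout.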
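For viability, T/C in this document: luminescence signal used as surrogate for viable cell content; 100% = DMSO vehicle control viability.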

SMILES: C=CC(=O)N1CCN(c2nc(=O)n(-c3c(C)ccnc3C(C)C)c3nc(-c4c(O)cccc4F)c(F)cc23)C(C)C1 (stereo unspecified) + COC1C(OC(N)=O)C(O)C(Oc2ccc3c(O)c(NC(=O)c4ccc(O)c(CC=C(C)C)c4)c(=O)oc3c2C)OC1(C)C
- IC50 (second compound 0.0316 µM): > 10 µM
- IC50 (second compound 0.1 µM): > 10 µM
- IC50 (second compound 0.316 µM): > 10 µM
- IC50 (second compound 1 µM): > 10 µM
- IC50 (second compound 3.16 µM): > 10 µM
- IC50 (second compound 10 µM): > 10 µM
- viability, T/C [1]: 102%
- viability, T/C [2]: 97.9%
- viability, T/C [3]: 110%
- viability, T/C [4]: 114%
- viability, T/C [5]: 119%
- viability, T/C [6]: 130%
- viability, T/C [7]: 98.7%
- viability, T/C [8]: 99.6%
- viability, T/C [9]: 91.5%
- viability, T/C [10]: 111%
- viability, T/C [11]: 114%
- viability, T/C [12]: 114%
- viability, T/C [13]: 102%
- viability, T/C [14]: 97%
- viability, T/C [15]: 118%
- viability, T/C [16]: 113%
- viability, T/C [17]: 138%
- viability, T/C [18]: 119%
- viability, T/C [19]: 94.5%
- viability, T/C [20]: 94%
- viability, T/C [21]: 105%
- viability, T/C [22]: 104%
- viability, T/C [23]: 120%
- viability, T/C [24]: 126%
- viability, T/C [25]: 92.4%
- viability, T/C [26]: 92.7%
- viability, T/C [27]: 105%
- viability, T/C [28]: 113%
- viability, T/C [29]: 126%
- viability, T/C [30]: 121%
- viability, T/C [31]: 99.7%
- viability, T/C [32]: 109%
- viability, T/C [33]: 113%
- viability, T/C [34]: 116%
- viability, T/C [35]: 111%
- viability, T/C [36]: 125%

SMILES: CC(C)n1c(=O)n(C)c2cnc3cc(F)c(-c4ccc(OCCCN5CCCCC5)nc4)cc3c21 + COC1C(OC(N)=O)C(O)C(Oc2ccc3c(O)c(NC(=O)c4ccc(O)c(CC=C(C)C)c4)c(=O)oc3c2C)OC1(C)C
- IC50 (second compound 0.0316 µM): > 10 µM
- IC50 (second compound 0.1 µM): > 10 µM
- IC50 (second compound 0.316 µM): > 10 µM
- IC50 (second compound 1 µM): > 10 µM
- IC50 (second compound 3.16 µM): > 10 µM
- IC50 (second compound 10 µM): > 10 µM
- viability, T/C [1]: 96%
- viability, T/C [2]: 93%
- viability, T/C [3]: 99.2%
- viability, T/C [4]: 105%
- viability, T/C [5]: 92.8%
- viability, T/C [6]: 82.5%
- viability, T/C [7]: 94%
- viability, T/C [8]: 96.7%
- viability, T/C [9]: 92.9%
- viability, T/C [10]: 90%
- viability, T/C [11]: 100%
- viability, T/C [12]: 90.8%
- viability, T/C [13]: 95.5%
- viability, T/C [14]: 98.9%
- viability, T/C [15]: 109%
- viability, T/C [16]: 87.3%
- viability, T/C [17]: 104%
- viability, T/C [18]: 78.9%
- viability, T/C [19]: 105%
- viability, T/C [20]: 106%
- viability, T/C [21]: 92.9%
- viability, T/C [22]: 94.1%
- viability, T/C [23]: 90.8%
- viability, T/C [24]: 82.7%
- viability, T/C [25]: 96%
- viability, T/C [26]: 104%
- viability, T/C [27]: 98.7%
- viability, T/C [28]: 91.7%
- viability, T/C [29]: 90.5%
- viability, T/C [30]: 86.9%
- viability, T/C [31]: 96.2%
- viability, T/C [32]: 91.1%
- viability, T/C [33]: 104%
- viability, T/C [34]: 90.5%
- viability, T/C [35]: 107%
- viability, T/C [36]: 88.7%

SMILES: CCc1cc2c(N3CCc4c(cc(Cn5ccnc5)cc4-c4cn(C)nc4C(F)(F)F)C3=O)cc(C)nc2c(OC)n1 + COC1C(OC(N)=O)C(O)C(Oc2ccc3c(O)c(NC(=O)c4ccc(O)c(CC=C(C)C)c4)c(=O)oc3c2C)OC1(C)C
- IC50 (second compound 0.0316 µM): > 10 µM
- IC50 (second compound 0.1 µM): > 10 µM
- IC50 (second compound 0.316 µM): > 10 µM
- IC50 (second compound 1 µM): > 10 µM
- IC50 (second compound 3.16 µM): > 10 µM
- IC50 (second compound 10 µM): > 10 µM
- viability, T/C [1]: 96%
- viability, T/C [2]: 98.1%
- viability, T/C [3]: 93.6%
- viability, T/C [4]: 99.2%
- viability, T/C [5]: 86.6%
- viability, T/C [6]: 83%
- viability, T/C [7]: 92.5%
- viability, T/C [8]: 105%
- viability, T/C [9]: 96.4%
- viability, T/C [10]: 88.5%
- viability, T/C [11]: 90.4%
- viability, T/C [12]: 79.8%
- viability, T/C [13]: 113%
- viability, T/C [14]: 97.5%
- viability, T/C [15]: 94.3%
- viability, T/C [16]: 90.8%
- viability, T/C [17]: 89.2%
- viability, T/C [18]: 83.3%
- viability, T/C [19]: 99.4%
- viability, T/C [20]: 106%
- viability, T/C [21]: 78.8%
- viability, T/C [22]: 84.7%
- viability, T/C [23]: 83.6%
- viability, T/C [24]: 84.2%
- viability, T/C [25]: 99.6%
- viability, T/C [26]: 93%
- viability, T/C [27]: 99.8%
- viability, T/C [28]: 82.7%
- viability, T/C [29]: 77.5%
- viability, T/C [30]: 74%
- viability, T/C [31]: 88.1%
- viability, T/C [32]: 82.8%
- viability, T/C [33]: 101%
- viability, T/C [34]: 77.7%
- viability, T/C [35]: 92.6%
- viability, T/C [36]: 96.2%
